According to patent US8163909B2, “Substituted hydroxyethyl amine compounds as beta-secretase modulators and methods of use” (Amgen Inc., priority 2007, dated 2012):
Read-outs that look alike come from different tables or passages of the source.

Assays:
[1] = tested on: Aβ40 in conditioned medium of cells stably expressing Amyloid Precursor Protein (APP); test: In vitro BACE cell-based assay (Aβ40 in conditioned medium, sandwich ELISA); details: cell-based assay, read-out: HEK cell assay (IC50);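 further: compounds added as a dilution series, secreted peptide quantified by europium time-resolved fluorescence readout, potency fitted from percent of control versus compound concentration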
[2] = molecular target: Beta Secretase enzyme (BACE) (Homo sapiens, UniProt P56817); test: In vitro enzymatic BACE FRET (fluorescence resonance energy transfer) assay; type: biochemical; details: BACE enzyme assay; read-out: BACE1 FRET assay (IC50);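 further: fluorescence read after 1 h with 50 nM quenched peptide substrate spanning the BACE cleavage site, in pH 4.2 acetate buffer containing 10% DMSO and nonionic detergent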
[3] = Homo sapiens, HEK293, HEK cells

Chain of Beta Secretase enzyme (BACE) (P56817 46-501): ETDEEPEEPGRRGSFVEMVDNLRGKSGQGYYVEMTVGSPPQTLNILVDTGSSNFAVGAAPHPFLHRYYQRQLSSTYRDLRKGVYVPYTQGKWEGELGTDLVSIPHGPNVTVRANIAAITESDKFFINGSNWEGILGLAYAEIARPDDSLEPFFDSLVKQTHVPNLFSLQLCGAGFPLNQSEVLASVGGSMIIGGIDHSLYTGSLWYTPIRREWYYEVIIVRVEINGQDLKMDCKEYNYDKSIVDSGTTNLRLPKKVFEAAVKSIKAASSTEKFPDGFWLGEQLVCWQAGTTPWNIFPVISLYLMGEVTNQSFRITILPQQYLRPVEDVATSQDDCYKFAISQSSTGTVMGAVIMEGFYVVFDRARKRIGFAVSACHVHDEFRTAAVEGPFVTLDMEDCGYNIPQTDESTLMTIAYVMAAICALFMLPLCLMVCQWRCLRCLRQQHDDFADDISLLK

Compound	IC50 [1, 3]	IC50 [2]	IC50 ([1]; HEK cells)
COc1cc(C[C@H](NC(=O)C(F)(F)F)[C@H](O)CN[C@H]2CC3(CCC3)Oc3ncc(CC(C)(C)C)cc32)ccc1F [compound 80]	125 nM	12.3 nM	
COCC(=O)N[C@@H](Cc1ccc(F)c(OC(F)(F)F)c1)[C@H](O)CN[C@H]1CC2(CCC2)Oc2ncc(CC(C)(C)C)cc21 [compound 81]	14 nM	2.51 nM	
CC(C)(C)Cc1cnc2c(c1)[C@@H](NC[C@@H](O)[C@H](Cc1ccc(F)c(OC(F)(F)F)c1)NC(=O)C(F)(F)F)CC1(CCC1)O2 [compound 82]	523 nM	2.83 nM	
CC(=O)Nc1cnc2c(c1)[C@@H](NC[C@@H](O)[C@H](Cc1ccc(F)cc1)NC(C)=O)CC1(CCC1)O2 [compound 83, N-((1S,2R)-3-(((4′S)-6′-(acetylamino)-3′,4′-dihydrospiro[cyclobutane-1,2′-pyrano[2,3-b]pyridin]-4′-yl)amino)-1-((4-fluorophenyl)methyl)-2-hydroxypropyl)acetamide]	> 10000 nM	593 nM	
CC(=O)N[C@@H](Cc1ccc(F)cc1)[C@H](O)CN[C@H]1CC2(CCC2)Oc2ncc(NC(=O)C(C)(C)C)cc21 [compound 84]	> 10000 nM	4870 nM	
CCC(=O)Nc1cnc2c(c1)[C@@H](NC[C@@H](O)[C@H](Cc1ccc(F)cc1)NC(C)=O)CC1(CCC1)O2 [compound 85]	> 10000 nM	890 nM	
CC(=O)N[C@@H](Cc1ccc(F)cc1)[C@H](O)CN[C@H]1CC2(CCC2)Oc2ncc(NC(=O)C(C)C)cc21 [compound 86]	9730 nM	7470 nM	
COCC(=O)N[C@@H](Cc1ccc2c(c1)OCO2)[C@H](O)CN[C@H]1CC2(CCC2)Oc2ncc(CC(C)(C)C#N)cc21 [compound 87]	82.8 nM	117 nM	
CC(=O)N[C@@H](Cc1ccc2c(c1)OCO2)[C@H](O)CN[C@H]1CC2(CCC2)Oc2ncc(CC(C)(C)C#N)cc21 [compound 88]	16 nM	48.5 nM	
COCC(=O)N[C@@H](Cc1cc(F)cc(F)c1)[C@H](O)CN[C@H]1CC2(CCCC2)C(=O)c2ccc(CC(C)(C)C)cc21 [compound 89]	58.6 nM	4.95 nM	
CC(=O)N[C@@H](Cc1cc(F)cc(F)c1)[C@H](O)CN[C@H]1CC2(CCCC2)C(=O)c2ccc(CC(C)(C)C)cc21 [compound 90]	74.7 nM	10.3 nM	
CC(=O)N[C@@H](Cc1cc(F)cc(F)c1)[C@H](O)CN[C@H]1CC2(CCC2)Oc2ncc(CC(C)(C)C#N)cc21 [compound 91]	6.46 nM	4.42 nM	
COCC(=O)N[C@@H](Cc1cc(F)cc(F)c1)[C@H](O)CN[C@H]1CC2(CCC2)Oc2ncc(CC(C)(C)C#N)cc21 [compound 92]	6.21 nM	3.25 nM	
CC(C)(C)Cc1cnc2c(c1)[C@@H](NC[C@@H](O)[C@H](Cc1cc(F)cc(F)c1)NC(=O)OCc1cncs1)CC1(CCC1)O2 [compound 93]	79.2 nM	4.95 nM	
CC(C)(C)Cc1cnc2c(c1)[C@@H](NC[C@@H](O)[C@H](Cc1cc(F)cc(F)c1)NC(=O)COCc1cncs1)CC1(CCC1)O2 [compound 94]	17.1 nM	3 nM	
CC(C)(C)Cc1cnc2c(c1)[C@@H](NC[C@@H](O)[C@H](Cc1cc(F)cc(F)c1)NC(=O)C(Cl)Cl)CC1(CCC1)O2 [compound 95]	16.7 nM	0.43 nM	
CC(C)(C)Cc1cnc2c(c1)[C@@H](NC[C@@H](O)[C@H](Cc1cc(F)cc(F)c1)NC(=O)C(F)(F)Cl)CC1(CCC1)O2 [compound 96]	43.2 nM	0.23 nM	
CC(C)(C)Cc1cnc2c(c1)[C@@H](NC[C@@H](O)[C@H](Cc1cc(F)cc(F)c1)NC(=O)C(C)(Cl)Cl)CC1(CCC1)O2 [compound 97]	385 nM	13.8 nM	
CC(C)(C)Cc1cnc2c(c1)[C@@H](NC[C@@H](O)[C@H](Cc1ccc3c(c1)OCO3)NC(=O)C(C)(Cl)Cl)CC1(CCC1)O2 [compound 98]		540 nM	767 nM
CC(C)(C)Cc1cnc2c(c1)[C@@H](NC[C@@H](O)[C@H](Cc1ccc3c(c1)OCO3)NC(=O)C(F)(F)Cl)CC1(CCC1)O2 [compound 99]	317 nM	59.3 nM	
CC(C)(C)Cc1cnc2c(c1)[C@@H](NC[C@@H](O)[C@H](Cc1ccc3c(c1)OCO3)NC(=O)C(Cl)Cl)CC1(CCC1)O2 [compound 100]		12.7 nM	71.4 nM
CC(C)(C)Cc1cnc2c(c1)[C@@H](NC[C@@H](O)[C@H](Cc1ccc3c(c1)OCO3)NC(=O)OCc1cncs1)CC1(CCC1)O2 [compound 101]		159 nM	1850 nM
COC(C)C(=O)NC(Cc1cc(F)cc(F)c1)C(O)CNC1CC2(CCC2)Oc2ncc(CC(C)(C)C)cc21 [compound 102, (R)—N-((2S,3R)-1-(3,5-difluorophenyl)-3-hydroxy-4-((S)-6-neopentyl-3,4-dihydrospiro[cyclobutane-1,2H-pyrano[2,3-b]pyridin-4-ylamino)butan-2-yl)-2-methoxypropanamide]		5.3 nM	10.6 nM

Compound	IC50 [1, 3]	IC50 [2]	IC50 ([1]; HEK cells)
COC(C)C(=O)NC(Cc1cc(F)cc(F)c1)C(O)CNC1CC2(CCC2)Oc2ncc(CC(C)(C)C)cc21 [compound 103, (S)—N-((2S,3R)-1-(3,5-difluorophenyl)-3-hydroxy-4-((S)-6-neopentyl-3,4-dihydrospiro[cyclobutane-1,2H-pyrano[2,3-b]pyridin-4-ylamino)butan-2-yl)-2-methoxypropanamide]		10.1 nM	26.8 nM
CC(C)(C)Cc1cnc2c(c1)[C@@H](NC[C@@H](O)[C@H](Cc1cc(F)cc(F)c1)NC(=O)CCl)CC1(CCC1)O2 [compound 104]		3.69 nM	18.8 nM
CC(C)(C)Cc1cnc2c(c1)[C@@H](NC[C@@H](O)[C@H](Cc1cccc(F)c1)NC(=O)C(Cl)Cl)CC1(CCC1)O2 [compound 105]	29.5 nM	4.06 nM	
CC(C)(C)Cc1cnc2c(c1)[C@@H](NC[C@@H](O)[C@H](Cc1cccc(F)c1)NC(=O)C(C)(Cl)Cl)CC1(CCC1)O2 [compound 106]	834 nM	66.9 nM	
CC(C)(C)Cc1cnc2c(c1)[C@@H](NC[C@@H](O)[C@H](Cc1cccc(F)c1)NC(=O)CCl)CC1(CCC1)O2 [compound 107]	22.4 nM	5.07 nM	
CC(C)(C)Cc1cnc2c(c1)[C@@H](NC[C@@H](O)[C@H](Cc1cccc(F)c1)NC(=O)C(F)(F)Cl)CC1(CCC1)O2 [compound 108]	90.6 nM	5.06 nM	
CC(=O)N[C@@H](Cc1cccc(F)c1C)[C@H](O)CN[C@H]1CC2(CCC2)Oc2ncc(CC(C)(C)C)cc21 [compound 109]	319 nM	72.3 nM	
CNc1nc(CC(C)(C)C)cc2c1OC1(CCC1)C[C@@H]2NC[C@@H](O)[C@H](Cc1ccccc1)NC(=O)COC [compound 112]	8.93 nM	30.4 nM	
COCC(=O)N[C@@H](Cc1ccccc1)[C@H](O)CN[C@H]1CC2(CCC2)Oc2c1cc(CC(C)(C)C)nc2N(C)C [compound 113]	497 nM	26.5 nM	
CC(=O)N[C@@H](Cc1ccc(F)cc1)[C@H](O)CN[C@H]1C[C@@]2(CC[C@@H]2O)Oc2ncc(CC(C)(C)C)cc21 [compound 114]	909 nM	1580 nM	
CC(=O)N[C@@H](Cc1ccc(F)cc1)[C@H](O)CN[C@@H]1C[C@]2(CC[C@H]2O)Oc2ncc(CC(C)(C)C)cc21 [compound 115]	5500 nM	6880 nM	
CC(=O)N[C@@H](Cc1ccc(F)cc1)[C@H](O)CN[C@H]1C[C@@]2(CC[C@H]2O)Oc2ncc(CC(C)(C)C)cc21 [compound 116]	148 nM	117 nM	
CC(=O)N[C@@H](Cc1ccc(F)cc1)[C@H](O)CN[C@H]1C[C@]2(CC[C@@H]2O)Oc2ncc(CC(C)(C)C)cc21 [compound 117]	33.6 nM	7.85 nM	
CC(=O)N[C@@H](Cc1ccc(F)cc1)[C@H](O)CN[C@H]1C[C@]2(CC[C@H]2O)Oc2ncc(CC(C)(C)C)cc21 [compound 118]	28 nM	9.11 nM	
COCC(=O)N[C@@H](Cc1ccc2c(c1)OCO2)[C@H](O)CN[C@H]1CC2(CCC2)Oc2cnc(CC(C)(C)C)cc21 [compound 119]	127 nM	203 nM	
C=CC[C@H](NC(=O)COC)[C@H](O)CN[C@H]1CC2(CCC2)Oc2cnc(CC(C)(C)C)cc21 [compound 120]	343 nM	745 nM	
COCC(=O)N[C@@H](Cc1ccccc1)[C@H](O)CN[C@H]1CC2(CCC2)Oc2cnc(CC(C)(C)C)cc21 [compound 121]	102 nM	22.1 nM	
COCC(=O)N[C@@H](Cc1cccc(F)c1)[C@H](O)CN[C@H]1CC2(CCC2)Oc2cnc(CC(C)(C)C)cc21 [compound 122]	23.1 nM	7.54 nM	
COCC(=O)N[C@@H](Cc1ccc(F)cc1)[C@H](O)CN[C@H]1CC2(CCC2)Oc2ccc(CC(C)(C)C)nc21 [compound 123, N-((1S,2R)-3-(((4′S)-6′-(2,2-dimethylpropyl)-3′,4′-dihydrospiro[cyclobutane-1,2′-pyrano[3,2-b]pyridin]-4′-yl)amino)-1-((4-fluorophenyl)methyl)-2-hydroxypropyl)-2-(methyloxy)acetamide]	3810 nM	3720 nM	
CC(=O)N[C@@H](Cc1ccc2c(c1)OCO2)[C@H](O)CN[C@H]1CC2(CCC2)Oc2c1cc(CC(C)(C)C)nc2Cl [compound 124]	114 nM	28.6 nM	
CNc1nc(CC(C)(C)C)cc2c1OC1(CCC1)C[C@@H]2NC[C@@H](O)[C@H](Cc1ccc2c(c1)OCO2)NC(=O)COC [compound 125]	13.3 nM	57 nM	
CNc1nc(CC(C)(C)C)cc2c1OC1(CCC1)C[C@@H]2NC[C@@H](O)[C@H](Cc1ccc2c(c1)OCO2)NC(C)=O [compound 126]	9.1 nM	48.4 nM	
